Source: ChEMBL document CHEMBL5042510, “Structure-Guided Discovery of Aminoquinazolines as Brain-Penetrant and Selective LRRK2 Inhibitors” (J Med Chem, 2022)

What was measured:
[1] = Unbound brain-to-plasma concentration ratio in rat at 2.5 uM incubated for 4 hrs by equilibrium dialysis method; type: ADME, cell-free; conditions: brain and plasma (unbound), read-out: K(p,uu,brain)
[2] = Unbound brain-to-plasma concentration ratio in non-human primates administered orally and measured after 120 mins by LC/MS/MS analysis; type: ADME; conditions: po, read-out: K(p,uu,brain)
[3] = Unbound brain-to-plasma concentration ratio in CD rat 1 to 100 mg/kg, po measured after 120 mins by LC/MS/MS analysis; type: ADME, organism-based; conditions: brain and plasma (unbound), dose 1-100 mg/kg, read-out: K(p,uu,brain)
[4] = In vivo inhibition of LRRK2 in CD rat assessed as reduction in phosphorylation at Ser935 residue in striatum at 10 mg/kg, po measured after 2 hrs by MSD assay; type: functional
[5] = target: Leucine-rich repeat serine/threonine-protein kinase 2 (Homo sapiens, UniProt Q5S007, G2019S); test: Inhibition of recombinant N-terminal GST-fused LRRK2 […] mutant (970 to 2527 residues) (unknown origin) preincubated with enzyme for 15 mins followed by fluorescein-labeled LRRKtide peptide substrate and ATP addition for 90 mins by TR-FRET assay
[6] = tested on: Leucine-rich repeat serine/threonine-protein kinase 2 (Homo sapiens), Q5S007 [G2019S]; test: Inhibition of LRRK2 […] mutant expressed in human SH-SY5Y cells assessed as unbound concentration required for inhibition of phosphorylation of LRRK2 at Ser935 residue incubated for 90 mins by MSD assay; type: cell-based
rat Mdr1a (P-gp) [7] = test: Efflux ratio of apparent permeability across basolateral to apical side over apical to basolateral side in rat Mdr1a-transfected pig LLC-PK1 cells at 0.1 to 1 uM measured after 3 hrs by LC/MS/MS analysis; type: ADME, cell-based, Sus scrofa; conditions: dose 0.1-1 µM
rat Mdr1a (P-gp) [8] = test: Apparent permeability from apical to basolateral side in rat Mdr1a-transfected pig LLC-PK1 cells at 0.1 to 1 uM measured after 3 hrs by LC/MS/MS analysis; type: ADME, cell-based, Sus scrofa; conditions: dose 0.1-1 µM
[9] = Intrinsic clearance in human hepatocytes at 0.3 uM incubated for 90 mins by LC/MS/MS analysis; type: ADME, cell-based, Hepatocyte; conditions: read-out: CLH
[10] = Intrinsic clearance in rat hepatocytes at 0.3 uM incubated for 90 mins by LC/MS/MS analysis; type: ADME, cell-based, Hepatocyte; conditions: read-out: CLH
[11] = Total plasma clearance in Wistar Han rat at 2 mg/kg, iv by LC-MS/MS analysis; type: ADME, organism-based
[12] = Intrinsic clearance in Wistar Han rat at 2 mg/kg, iv by LC-MS/MS analysis; type: ADME, organism-based; conditions: in vivo
[13] = MRT in Wistar Han rat at 2 mg/kg, iv by LC-MS/MS analysis; type: ADME, organism-based; conditions: in vivo
[14] = Intrinsic clearance in dog hepatocytes at 0.3 uM incubated for 90 mins by LC/MS/MS analysis; type: ADME, cell-based, Canis lupus familiaris, Hepatocyte; conditions: read-out: CLH
[15] = Total plasma clearance in Beagle dog at 0.25 mg/kg, iv by LC-MS/MS analysis; type: ADME, organism-based, Canis lupus familiaris
[16] = Intrinsic clearance in Beagle dog at 0.25 mg/kg, iv by LC-MS/MS analysis; type: ADME, organism-based, Canis lupus familiaris; conditions: in vivo
[17] = MRT in Beagle dog at 0.25 mg/kg, iv by LC-MS/MS analysis; type: ADME, organism-based, Canis lupus familiaris; conditions: in vivo
[18] = Oral bioavailability in Wistar Han rat at 10 mg/kg by LC-MS/MS analysis; type: ADME, organism-based; conditions: in vivo
[19] = Oral bioavailability in Beagle dog at 0.5 mg/kg by LC-MS/MS analysis; type: ADME, organism-based, Canis lupus familiaris; conditions: in vivo
mouse Bcrp = test: Efflux ratio of apparent permeability across basolateral to apical over apical to basolateral side in mouse Bcrp-transfected dog MDCK-II cells at 0.1 to 1 uM measured after 3 hrs by LC/MS/MS analysis; type: ADME, cell-based, Canis lupus familiaris; conditions: dose 0.1-1 µM
[20] = target: Voltage-gated inwardly rectifying potassium channel KCNH2 (Homo sapiens, UniProt Q12809); test: Inhibition of human ERG by voltage clamp assay; type: toxicity
Homo sapiens [21] = species: Homo sapiens; test: Selectivity ratio of IC50 for AURKA (unknown origin) to IC50 for LRRK2 (unknown origin)
Homo sapiens [22] = species: Homo sapiens; test: Selectivity ratio of IC50 for MAP3K8 (unknown origin) to IC50 for LRRK2 (unknown origin)
Homo sapiens [23] = species: Homo sapiens; test: Selectivity ratio of IC50 for PRKCZ (unknown origin) to IC50 for LRRK2 (unknown origin)
[24] = target: T1, 5-hydroxytryptamine receptor 1A (Homo sapiens) (UniProt P08908); test: Inhibition of human 5HT1A receptor at 10 uM
T1 sequence (whole entry): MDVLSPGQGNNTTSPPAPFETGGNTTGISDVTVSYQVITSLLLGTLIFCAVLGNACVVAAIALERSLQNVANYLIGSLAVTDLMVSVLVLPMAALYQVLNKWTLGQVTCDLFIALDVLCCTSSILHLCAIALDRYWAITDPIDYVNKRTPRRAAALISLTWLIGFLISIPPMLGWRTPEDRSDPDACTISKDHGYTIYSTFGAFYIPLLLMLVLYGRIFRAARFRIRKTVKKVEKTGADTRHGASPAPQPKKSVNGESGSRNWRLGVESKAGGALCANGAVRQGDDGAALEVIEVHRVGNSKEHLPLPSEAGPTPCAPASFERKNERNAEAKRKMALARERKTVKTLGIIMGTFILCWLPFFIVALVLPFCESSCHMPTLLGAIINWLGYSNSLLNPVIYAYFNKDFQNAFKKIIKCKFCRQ

Salmonella typhimurium [25] = test: Mutagenicity in Salmonella typhimurium TA1535 at 30 to 5000 ug incubated for 48 hrs in presence of liver S9 fraction by AMES test; type: toxicity, organism-based, Salmonella enterica subsp. enterica serovar Typhimurium; conditions: s9, 48 h, dose 30-5000 µg
Salmonella typhimurium [26] = test: Mutagenicity in Salmonella typhimurium TA98 at 30 to 5000 ug incubated for 48 hrs in presence of liver S9 fraction by AMES test; type: toxicity, organism-based, Salmonella enterica subsp. enterica serovar Typhimurium; conditions: s9, 48 h, dose 30-5000 µg
Salmonella typhimurium [27] = test: Mutagenicity in Salmonella typhimurium TA100 at 30 to 5000 ug incubated for 48 hrs in presence of liver S9 fraction by AMES test; type: toxicity, organism-based, Salmonella enterica subsp. enterica serovar Typhimurium; conditions: s9, 48 h, dose 30-5000 µg
[28] = Toxicity in rat assessed as drug tolerability at 25 to 300 mg/kg, po qd administered for 4 days; type: organism-based; conditions: in vivo, 96 h, dose 25-300 mg/kg, time 4 day
[29] = Toxicity in rat assessed as body weight loss at 300 mg/kg, po qd administered for 4 days; type: organism-based; conditions: in vivo, 96 h, time 4 day
[30] = Toxicity in rat assessed as positive heart transcriptional score at 300 mg/kg, po qd administered for 4 days; type: organism-based; conditions: in vivo, 96 h, time 4 day
[31] = Toxicity in rat assessed as positive liver transcriptional score at 300 mg/kg, po qd administered for 4 days; type: organism-based; conditions: in vivo, 96 h, time 4 day
[32] = Toxicity in rat assessed as elevation of liver enzyme biomarker levels at 300 mg/kg, po qd administered for 4 days; type: organism-based; conditions: in vivo, 96 h, time 4 day
[33] = In vivo inhibition of LRRK2 in po dosed CD rat assessed as unbound concentration required for reduction in phosphorylation at Ser935 residue in striatum measured after 2 hrs by MSD assay; type: functional

Chain of Leucine-rich repeat serine/threonine-protein kinase 2 (Homo sapiens), Q5S007 [G2019S] (Q5S007 whole entry G2019S): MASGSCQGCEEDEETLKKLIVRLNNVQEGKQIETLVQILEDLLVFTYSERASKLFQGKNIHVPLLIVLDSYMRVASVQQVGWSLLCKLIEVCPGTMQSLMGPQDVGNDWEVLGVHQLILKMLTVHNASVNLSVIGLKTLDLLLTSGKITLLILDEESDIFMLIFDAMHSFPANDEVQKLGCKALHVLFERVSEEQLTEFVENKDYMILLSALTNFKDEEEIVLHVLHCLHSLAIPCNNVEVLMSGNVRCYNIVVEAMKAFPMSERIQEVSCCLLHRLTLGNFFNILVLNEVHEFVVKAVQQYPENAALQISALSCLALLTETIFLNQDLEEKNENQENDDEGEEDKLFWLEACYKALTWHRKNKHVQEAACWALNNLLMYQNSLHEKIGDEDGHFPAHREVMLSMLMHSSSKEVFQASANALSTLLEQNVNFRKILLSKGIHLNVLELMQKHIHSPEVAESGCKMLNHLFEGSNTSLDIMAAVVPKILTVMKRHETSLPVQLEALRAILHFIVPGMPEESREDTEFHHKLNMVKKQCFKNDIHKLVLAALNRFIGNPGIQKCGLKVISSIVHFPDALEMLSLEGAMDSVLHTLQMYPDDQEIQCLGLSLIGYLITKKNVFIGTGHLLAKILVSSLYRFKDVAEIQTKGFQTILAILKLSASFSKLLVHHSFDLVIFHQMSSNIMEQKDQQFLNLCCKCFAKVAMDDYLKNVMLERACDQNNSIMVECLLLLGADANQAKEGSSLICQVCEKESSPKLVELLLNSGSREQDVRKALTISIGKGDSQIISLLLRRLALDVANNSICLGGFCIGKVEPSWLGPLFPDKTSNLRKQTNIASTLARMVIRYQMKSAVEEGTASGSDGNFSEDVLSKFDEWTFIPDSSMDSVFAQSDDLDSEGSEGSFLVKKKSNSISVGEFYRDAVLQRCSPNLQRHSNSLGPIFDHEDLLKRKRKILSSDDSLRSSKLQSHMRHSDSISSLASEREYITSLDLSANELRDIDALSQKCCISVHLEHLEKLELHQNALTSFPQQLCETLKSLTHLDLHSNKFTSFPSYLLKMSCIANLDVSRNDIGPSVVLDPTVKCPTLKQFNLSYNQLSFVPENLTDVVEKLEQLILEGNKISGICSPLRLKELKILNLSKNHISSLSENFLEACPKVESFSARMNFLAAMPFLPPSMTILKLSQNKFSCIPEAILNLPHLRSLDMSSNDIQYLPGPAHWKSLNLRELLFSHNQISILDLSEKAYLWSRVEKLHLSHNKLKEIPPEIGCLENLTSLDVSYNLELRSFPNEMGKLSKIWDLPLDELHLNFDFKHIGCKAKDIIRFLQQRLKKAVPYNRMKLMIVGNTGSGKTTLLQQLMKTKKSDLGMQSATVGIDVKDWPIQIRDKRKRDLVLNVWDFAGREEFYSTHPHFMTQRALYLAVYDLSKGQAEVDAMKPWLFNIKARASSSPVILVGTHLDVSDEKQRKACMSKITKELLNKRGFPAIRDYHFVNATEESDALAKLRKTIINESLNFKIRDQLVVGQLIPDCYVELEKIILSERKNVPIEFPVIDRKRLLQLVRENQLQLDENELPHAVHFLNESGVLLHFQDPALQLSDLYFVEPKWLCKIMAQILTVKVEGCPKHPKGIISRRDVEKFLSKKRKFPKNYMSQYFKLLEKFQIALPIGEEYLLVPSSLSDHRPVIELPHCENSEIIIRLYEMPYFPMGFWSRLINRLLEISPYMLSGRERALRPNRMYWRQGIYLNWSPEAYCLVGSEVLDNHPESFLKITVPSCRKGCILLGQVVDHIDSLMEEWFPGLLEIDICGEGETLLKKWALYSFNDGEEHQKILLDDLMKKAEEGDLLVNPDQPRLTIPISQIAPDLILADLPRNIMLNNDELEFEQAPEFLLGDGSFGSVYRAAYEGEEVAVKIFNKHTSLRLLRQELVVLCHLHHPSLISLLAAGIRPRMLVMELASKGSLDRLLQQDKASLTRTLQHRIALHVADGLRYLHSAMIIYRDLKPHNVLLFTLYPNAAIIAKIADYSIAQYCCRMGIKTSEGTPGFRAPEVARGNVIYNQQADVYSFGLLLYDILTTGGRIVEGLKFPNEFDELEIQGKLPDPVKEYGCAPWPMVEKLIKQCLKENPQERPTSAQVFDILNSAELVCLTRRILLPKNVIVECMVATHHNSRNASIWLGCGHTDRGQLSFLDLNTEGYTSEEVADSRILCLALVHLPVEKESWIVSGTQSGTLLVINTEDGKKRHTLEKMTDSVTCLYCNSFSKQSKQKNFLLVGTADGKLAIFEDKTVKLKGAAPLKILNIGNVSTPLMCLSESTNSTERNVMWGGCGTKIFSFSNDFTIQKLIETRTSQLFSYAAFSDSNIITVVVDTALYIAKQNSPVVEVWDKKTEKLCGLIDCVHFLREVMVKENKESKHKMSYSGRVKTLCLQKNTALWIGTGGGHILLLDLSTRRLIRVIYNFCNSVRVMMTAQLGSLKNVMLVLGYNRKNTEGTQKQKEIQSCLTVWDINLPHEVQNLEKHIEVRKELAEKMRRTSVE
Chain of Leucine-rich repeat serine/threonine-protein kinase 2 (Q5S007 whole entry G2019S, the tested form may be a part): as the sequence (Q5S007 whole entry G2019S) above
Chain of Voltage-gated inwardly rectifying potassium channel KCNH2 (Q12809 whole entry): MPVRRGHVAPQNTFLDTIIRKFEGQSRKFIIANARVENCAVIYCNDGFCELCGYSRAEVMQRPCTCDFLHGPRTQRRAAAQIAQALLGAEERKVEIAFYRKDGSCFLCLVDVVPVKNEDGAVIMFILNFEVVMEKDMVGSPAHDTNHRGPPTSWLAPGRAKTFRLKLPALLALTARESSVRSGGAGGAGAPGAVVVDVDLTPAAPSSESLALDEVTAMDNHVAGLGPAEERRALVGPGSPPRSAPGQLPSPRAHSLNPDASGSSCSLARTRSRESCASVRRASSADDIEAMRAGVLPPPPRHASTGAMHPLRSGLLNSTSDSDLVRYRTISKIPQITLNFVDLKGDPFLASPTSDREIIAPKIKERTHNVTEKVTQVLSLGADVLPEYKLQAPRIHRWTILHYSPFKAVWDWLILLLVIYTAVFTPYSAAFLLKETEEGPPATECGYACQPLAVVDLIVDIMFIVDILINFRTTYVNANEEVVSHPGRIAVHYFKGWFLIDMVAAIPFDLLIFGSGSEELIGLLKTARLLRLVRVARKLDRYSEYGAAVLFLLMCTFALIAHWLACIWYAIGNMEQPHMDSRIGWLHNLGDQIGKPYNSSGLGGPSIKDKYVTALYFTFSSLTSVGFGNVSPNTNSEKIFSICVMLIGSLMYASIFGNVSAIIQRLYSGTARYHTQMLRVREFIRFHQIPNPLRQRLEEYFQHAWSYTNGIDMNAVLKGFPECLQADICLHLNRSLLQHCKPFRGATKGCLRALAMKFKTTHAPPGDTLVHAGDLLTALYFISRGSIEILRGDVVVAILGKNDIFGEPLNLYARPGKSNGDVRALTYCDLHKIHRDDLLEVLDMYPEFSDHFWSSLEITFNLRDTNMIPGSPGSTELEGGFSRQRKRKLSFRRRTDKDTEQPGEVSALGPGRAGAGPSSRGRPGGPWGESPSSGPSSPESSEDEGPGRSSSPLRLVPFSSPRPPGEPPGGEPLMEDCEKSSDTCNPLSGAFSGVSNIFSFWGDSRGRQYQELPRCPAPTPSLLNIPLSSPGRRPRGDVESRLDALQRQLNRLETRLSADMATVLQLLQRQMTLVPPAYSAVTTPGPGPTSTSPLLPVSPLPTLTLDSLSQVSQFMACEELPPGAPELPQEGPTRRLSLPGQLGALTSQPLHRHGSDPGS

For `C[C@@H]1CN(c2cc(-c3n[nH]c4ccc(OC5(C)CC5)cc34)ncn2)C[C@H](C)O1` [MLi-2], which Kp uu at 4 h, 2.5 µM [1] is on record?
Its Kp uu at 4 h, 2.5 µM is 0.49.

What about the Kp uu at 2 h [2] of the same compound?
The Kp uu at 2 h was 0.37.

What about the Kp uu at 2 h [3] of the same compound?
The Kp uu at 2 h was 0.7.

What about the inhibition in vivo at 10 mg/kg [4] of the same compound?
Its inhibition in vivo at 10 mg/kg is 93%.

Which results are given for `CC(C)(O)Cn1ncc(Nc2ncc3cc(Cl)c(C4CCN(C5COC5)CC4)cc3n2)c1Cl`?
Kp uu at 4 h, 2.5 µM [1]: 0.3; IC50 [5]: 0.0008 µM; fIC50 [6]: 58 nM; efflux ratio at 3 h, up to 1 µM (rat Mdr1a (P-gp) [7]): 4.2; Papp A→B at 3 h, up to 1 µM (rat Mdr1a (P-gp) [8]): 33 ×10⁻⁶ cm/s; CLint scaled at 0.3 µM [9]: 132 mL/min/kg; CLint scaled at 0.3 µM [10]: 311 mL/min/kg; clearance [11]: 11 mL/min/kg; CL [12]: 175 mL/min/kg; MRT [13]: 2.7 h; CLint scaled at 0.3 µM [14]: 150 mL/min/kg; clearance [15]: 7 mL/min/kg; CL [16]: 63 mL/min/kg; MRT [17]: 7.8 h; bioavailability [18]: 95%; bioavailability [19]: 85%; efflux ratio at 3 h, up to 1 µM (mouse Bcrp): 4.2; IC50 [20]: 23 µM; Ratio IC50 (Homo sapiens [21]): < 100; Ratio IC50 (Homo sapiens [22]): < 100; Ratio IC50 (Homo sapiens [23]): < 100; inhibition [24]: > 50%; Activity (Salmonella typhimurium [25]): Non-Toxic; Activity (Salmonella typhimurium [26]): Non-Toxic; Activity (Salmonella typhimurium [27]): Non-Toxic; Activity [28]: Non-Toxic; Activity [29]: 11%; Activity [30]: Toxic; Activity [31]: Toxic; Activity [32]: Toxic; fIC50 [33]: 68 nM
